Laboratory results published in patent US5834454A, “Substituted guanidine derivatives, process for production thereof, and pharmaceutical uses thereof” (Sumitomo Pharmaceuticals Company, Limited, priority 1996, dated 1998).
pIC50: −log10 of the molar value.

What follows are compounds tested against T1, Na^+ /H^+ exchange transport system (Rattus norvegicus, UniProt P26431) (assay: Inhibitory effect on the Na^+ /H^+ exchange transport system (in vitro), pH change in isolated ventricular myocytes under an acid load).
T1 construct: isolated ventricular myocytes (rat); endogenous in cells; host or cells: isolated rat ventricular myocytes (primary cells)
T1 sequence (P26431 whole entry): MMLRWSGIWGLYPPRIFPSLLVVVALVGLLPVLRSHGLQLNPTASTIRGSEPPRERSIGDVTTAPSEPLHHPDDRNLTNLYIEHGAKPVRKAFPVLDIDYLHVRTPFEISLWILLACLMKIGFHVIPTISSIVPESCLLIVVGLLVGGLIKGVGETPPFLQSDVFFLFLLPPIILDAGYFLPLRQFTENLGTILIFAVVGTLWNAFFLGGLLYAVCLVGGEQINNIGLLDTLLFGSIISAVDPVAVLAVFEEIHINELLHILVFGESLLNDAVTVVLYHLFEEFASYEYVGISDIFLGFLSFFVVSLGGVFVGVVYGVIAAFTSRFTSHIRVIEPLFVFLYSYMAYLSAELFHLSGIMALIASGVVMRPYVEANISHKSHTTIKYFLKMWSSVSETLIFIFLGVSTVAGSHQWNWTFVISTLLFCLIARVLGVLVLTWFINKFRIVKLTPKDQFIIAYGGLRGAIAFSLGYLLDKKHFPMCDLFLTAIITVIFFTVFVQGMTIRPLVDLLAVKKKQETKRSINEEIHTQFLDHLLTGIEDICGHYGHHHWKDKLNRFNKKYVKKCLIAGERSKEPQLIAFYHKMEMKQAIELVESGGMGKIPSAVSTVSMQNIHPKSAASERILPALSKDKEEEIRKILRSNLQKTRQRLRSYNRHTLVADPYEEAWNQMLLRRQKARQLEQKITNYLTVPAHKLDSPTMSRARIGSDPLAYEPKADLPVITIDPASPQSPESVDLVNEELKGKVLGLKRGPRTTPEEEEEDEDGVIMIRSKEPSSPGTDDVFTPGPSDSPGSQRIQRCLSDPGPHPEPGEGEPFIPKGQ
Format: cell-based
Protocol: Inhibitry effect on the Na^+ /H^+ exchange transport system (in vitro)
A test was carried out according to the method of Iemori et al. (J. Hypertension, 8, 153 (1990)). In detail, inhibitory effect on the Na^+ /H^+ exchange transport system was evaluated by using as an indication a pH change in isolated ventricular myocytes (rat) under an acid load.
`Cc1ccc2c3c1cc(C(=O)N=C(N)N)n3CCC2=O` [Example 1, N-(aminoiminomethyl)-5,6-dihydro-9-methyl-6-oxo-4H-pyrrolo [3,2,1-ij]quinoline-2-carboxamide methanesulfonate] showed a pIC50 of 6.52. With `Cc1ccc2c3c1cc(C(=O)N=C(N)N)n3CCO2` [Example 2, N-(aminoiminomethyl)-2,3-dihydro-7-methyl-pyrrolo [1,2,3-de]-1,4-benzoxazine-5-carboxamide methanesulfonate] the pIC50 was 6.70. `NC(N)=NC(=O)c1cc2cccc3c2n1CCC3` [Example 3, N-(aminoiminomethyl)-5,6-dihydro-4H-pyrrolo [3,2,1-ij]quinoline-2-carboxamide methanesulfonate] gave a pIC50 of 6.52.
